row,Compound,melting point
1,"Cc1ccc(N(C)S(=O)(=O)c2cccs2)c2[nH]c(-c3ncc(CN4CCC(O)C4)s3)cc12 (centres unmarked) [Example 251, N-(2-{5-[(3-hydroxypyrrolidin-1-yl)methyl]-1,3-thiazol-2-yl}-4-methyl-1H-indol-7-yl)-N-methylthiophene-2-sulfonamide]",190 to 191 °C
2,"CCOC(=O)CC1CN=C(c2cc3cccc(N(C)S(=O)(=O)c4cccs4)c3[nH]2)S1 (centres unmarked) [Example 283, ethyl (2-{7-[methyl(2-thienylsulfonyl)amino]-1H-indol-2-yl}-4,5-dihydro-1,3-thiazol-5-yl)acetate]",101 to 102 °C
3,"Cc1ccc(N(C)S(=O)(=O)c2cccs2)c2[nH]c(C3=NCC(CC(=O)O)S3)cc12 (centres unmarked) [Example 292, (2-{4-methyl-7-[methyl(2-thienylsulfonyl)amino]-1H-indol-2-yl}-4,5-dihydro-1,3-thiazol-5-yl)acetic acid]",269 to 270 °C
4,"Cc1ccc(N(C)S(=O)(=O)c2cccs2)c2[nH]c(C3=NCC(CC(N)=O)S3)cc12 (centres unmarked) [Example 293, 2-(2-{4-methyl-7-[methyl(2-thienylsulfonyl)amino]-1H-indol-2-yl}-4,5-dihydro-1,3-thiazol-5-yl)acetamide]",120 to 121 °C
5,"O=C(O)CC1CN=C(c2cc3cccc(NS(=O)(=O)c4cccs4)c3[nH]2)S1 (centres unmarked) [Example 296, (2-{7-[(2-thienylsulfonyl)amino]-1H-indol-2-yl}-4,5-dihydro-1,3-thiazol-5-yl)acetic acid]",> 240 °C (dec.)
6,"CON(C)C(=O)CC1CN=C(c2cc3cccc(N(C)S(=O)(=O)c4cccs4)c3[nH]2)S1 (centres unmarked) [Example 299, N-methoxy-N-methyl-2-(2-{7-[methyl(2-thienylsulfonyl)amino]-1H-indol-2-yl}-4,5-dihydro-1,3-thiazol-5-yl)acetamide]",153 to 154 °C
7,"CC(=O)CC1CN=C(c2cc3cccc(N(C)S(=O)(=O)c4cccs4)c3[nH]2)S1 (centres unmarked) [Example 300, N-methyl-N-{2-[5-(2-oxopropyl)-4,5-dihydro-1,3-thiazol-2-yl]-1H-indol-7-yl}thiophene-2-sulfonamide]",123 to 124 °C
8,"C=CC(=O)CC1CN=C(c2cc3cccc(N(C)S(=O)(=O)c4cccs4)c3[nH]2)S1 (centres unmarked) [Example 301, N-methyl-N-{2-[5-(2-oxobut-3-en-1-yl)-4,5-dihydro-1,3-thiazol-2-yl]-1H-indol-7-yl}thiophene-2-sulfonamide]",157 to 158 °C
9,"CN1CCC(CC2CN=C(c3cc4cccc(N(C)S(=O)(=O)c5cccs5)c4[nH]3)S2)=N1 (centres unmarked) [Example 302, N-methyl-N-(2-{5-[(1-methyl-4,5-dihydro-1H-pyrazol-3-yl)methyl]-4,5-dihydro-1,3-thiazol-2-yl}-1H-indol-7-yl)thiophene-2-sulfonamide]",149 to 150 °C
10,"COc1ccccc1S(=O)(=O)N(C)c1cccc2cc(C3=NCC(CCO)S3)[nH]c12 (centres unmarked) [Example 306, N-{2-[5-(2-hydroxyethyl)-4,5-dihydro-1,3-thiazol-2-yl]-1H-indol-7-yl}-2-methoxy-N-methylbenzenesulfonamide]",154 to 155 °C
11,"COc1ccccc1S(=O)(=O)N(C)c1cccc2cc(C3=NCC(CC(=O)Nc4nnc[nH]4)S3)[nH]c12 (centres unmarked) [Example 310, 2-(2-{7-[[(2-methoxyphenyl)sulfonyl](methyl)amino]-1H-indol-2-yl}-4,5-dihydro-1,3-thiazol-5-yl)-N-4H-1,2,4-triazol-3-ylacetamide]",208 to 209 °C
12,"CN(c1cccc2cc(C3=NCC(CCO)S3)[nH]c12)S(=O)(=O)c1ccccc1C(F)(F)F (centres unmarked) [Example 315, N-{2-[5-(2-hydroxyethyl)-4,5-dihydro-1,3-thiazol-2-yl]-1H-indol-7-yl}-N-methyl-2-(trifluoromethyl)benzenesulfonamide]",153 to 154 °C
13,"CN(c1cccc2cc(C3=NCC(CC(=O)N4CCC[C@H]4C(=O)O)S3)[nH]c12)S(=O)(=O)c1ccccc1C(F)(F)F (stereo partly drawn) [Example 316, 1-({2-[7-(methyl{[2-(trifluoromethyl)phenyl]sulfonyl}amino)-1H-indol-2-yl]-4,5-dihydro-1,3-thiazol-5-yl}acetyl)-L-proline]",132 to 135 °C
14,"CN(c1cc(OCCCS(C)(=O)=O)cc2cc(C3=NCC(CN4CCOCC4)S3)[nH]c12)S(=O)(=O)c1ccccn1 (centres unmarked) [Example 321, N-methyl-N-{5-[3-(methylsulfonyl)propoxy]-2-[5-(morpholinomethyl)-4,5-dihydro-1,3-thiazol-2-yl]-1H-indol-7-yl}pyridine-2-sulfonamide]",168 to 169 °C

# Results, then the compound that gave them:
row,melting point,Compound
1,232 to 234 °C,"CN(c1cccc2cc(C3=NCC(CC(=O)O)S3)[nH]c12)S(=O)(=O)c1cccs1 (centres unmarked) [Example 284, (2-{7-[methyl(2-thienylsulfonyl)amino]-1H-indol-2-yl}-4,5-dihydro-1,3-thiazol-5-yl)acetic acid]"
2,174 to 175 °C,"CN(c1cccc2cc(C3=NCC(CCO)S3)[nH]c12)S(=O)(=O)c1cccs1 (centres unmarked) [Example 285, N-{2-[5-(2-hydroxyethyl)-4,5-dihydro-1,3-thiazol-2-yl]-1H-indol-7-yl}-N-methylthiophene-2-sulfonamide]"
3,151 to 153 °C,"CN1CCN(C(=O)CC2CN=C(c3cc4cccc(N(C)S(=O)(=O)c5cccs5)c4[nH]3)S2)CC1 (centres unmarked) [Example 286, N-methyl-N-(2-{5-[2-(4-methylpiperazin-1-yl)-2-oxoethyl]-4,5-dihydro-1,3-thiazol-2-yl}-1H-indol-7-yl)thiophene-2-sulfonamide]"
4,193 to 194 °C,"CN(c1cccc2cc(C3=NCC(CC(N)=O)S3)[nH]c12)S(=O)(=O)c1cccs1 (centres unmarked) [Example 287, 2-(2-{7-[methyl(2-thienylsulfonyl)amino]-1H-indol-2-yl}-4,5-dihydro-1,3-thiazol-5-yl)acetamide]"
5,189 to 191 °C,"CN(c1cccc2cc(C3=NCC(CCN4C(=O)CCC4=O)S3)[nH]c12)S(=O)(=O)c1cccs1 (centres unmarked) [Example 288, N-(2-{5-[2-(2,5-dioxopyrrolidin-1-yl)ethyl]-4,5-dihydro-1,3-thiazol-2-yl}-1H-indol-7-yl)-N-methylthiophene-2-sulfonamide]"
6,109 to 110 °C,"CCOC(=O)CC1CN=C(c2cc3c(C)ccc(N(C)S(=O)(=O)c4cccs4)c3[nH]2)S1 (centres unmarked) [Example 290, ethyl (2-{4-methyl-7-[methyl(2-thienylsulfonyl)amino]-1H-indol-2-yl}-4,5-dihydro-1,3-thiazol-5-yl)acetate]"
7,168 to 169 °C,"Cc1ccc(N(C)S(=O)(=O)c2cccs2)c2[nH]c(C3=NCC(CCO)S3)cc12 (centres unmarked) [Example 291, N-{2-[5-(2-hydroxyethyl)-4,5-dihydro-1,3-thiazol-2-yl]-4-methyl-1H-indol-7-yl}-N-methylthiophene-2-sulfonamide]"
8,153 to 154 °C,"CN(C)C(=O)CC1CN=C(c2cc3cccc(N(C)S(=O)(=O)c4cccs4)c3[nH]2)S1 (centres unmarked) [Example 294, N,N-dimethyl-2-(2-{7-[methyl(2-thienylsulfonyl)amino]-1H-indol-2-yl}-4,5-dihydro-1,3-thiazol-5-yl)acetamide]"
9,156 to 158 °C,"O=S(=O)(Nc1cccc2cc(C3=NCC(CCO)S3)[nH]c12)c1cccs1 (centres unmarked) [Example 295, N-{2-[5-(2-hydroxyethyl)-4,5-dihydro-1,3-thiazol-2-yl]-1H-indol-7-yl}thiophene-2-sulfonamide]"
10,130 to 131 °C,"NC(=O)CC1CN=C(c2cc3cccc(NS(=O)(=O)c4cccs4)c3[nH]2)S1 (centres unmarked) [Example 297, 2-(2-{7-[(2-thienylsulfonyl)amino]-1H-indol-2-yl}-4,5-dihydro-1,3-thiazol-5-yl)acetamide]"
11,142 to 144 °C,"CN(c1cccc2cc(C3=NCC(CN4CCSCC4)S3)[nH]c12)S(=O)(=O)c1ccccn1 (centres unmarked) [Example 303, N-methyl-N-{2-[5-(thiomorpholinomethyl)-4,5-dihydro-1,3-thiazol-2-yl]-1H-indol-7-yl}pyridine-2-sulfonamide]"
12,193 to 194 °C,"CN(c1cccc2cc(C3=NCC(CN4CC[S+]([O-])CC4)S3)[nH]c12)S(=O)(=O)c1ccccn1 (centres unmarked) [Example 304, N-methyl-N-(2-{5-[(1-oxidothiomorpholino)methyl]-4,5-dihydro-1,3-thiazol-2-yl}-1H-indol-7-yl)pyridine-2-sulfonamide]"
13,197 to 198 °C,"COc1ccccc1S(=O)(=O)N(C)c1cccc2cc(C3=NCC(CC(=O)O)S3)[nH]c12 (centres unmarked) [Example 307, (2-{7-[[(2-methoxyphenyl)sulfonyl](methyl)amino]-1H-indol-2-yl}-4,5-dihydro-1,3-thiazol-5-yl)acetic acid]"
14,227 to 228 °C,"COc1ccccc1S(=O)(=O)N(C)c1cccc2cc(C3=NCC(CC(N)=O)S3)[nH]c12 (centres unmarked) [Example 308, 2-(2-{7-[[(2-methoxyphenyl)sulfonyl](methyl)amino]-1H-indol-2-yl}-4,5-dihydro-1,3-thiazol-5-yl)acetamide]"
15,166 to 167 °C,"COc1ccccc1S(=O)(=O)N(C)c1cccc2cc(C3=NCC(CC(=O)N4CCC(O)CC4)S3)[nH]c12 (centres unmarked) [Example 311, N-(2-{5-[2-(4-hydroxypiperidino)-2-oxoethyl]-4,5-dihydro-1,3-thiazol-2-yl}-1H-indol-7-yl)-2-methoxy-N-methylbenzenesulfonamide]"
16,170 to 172 °C,"CN(c1cccc2cc(C3=NCC(CC(=O)O)S3)[nH]c12)S(=O)(=O)c1ccccc1C(F)(F)F (centres unmarked) [Example 314, {2-[7-(methyl{[2-(trifluoromethyl)phenyl]sulfonyl}amino)-1H-indol-2-yl]-4,5-dihydro-1,3-thiazol-5-yl}acetic acid]"
17,188 to 189 °C,"CN(c1cccc2cc(C3=NCC(CN4CCS(=O)(=O)CC4)S3)[nH]c12)S(=O)(=O)c1ccccn1 (centres unmarked) [Example 318, N-(2-{5-[(1,1-dioxidothiomorpholino)methyl]-4,5-dihydro-1,3-thiazol-2-yl}-1H-indol-7-yl)-N-methylpyridine-2-sulfonamide]"
18,161 to 162 °C,"CN(c1cccc2cc(C3=NCC(CN4CC[S+]([O-])CC4)S3)[nH]c12)S(=O)(=O)c1nccn1C (centres unmarked) [Example 320, N,1-dimethyl-N-(2-{5-[(1-oxidothiomorpholino)methyl]-4,5-dihydro-1,3-thiazol-2-yl}-1H-indol-7-yl)-1H-imidazole-2-sulfonamide]"

# Source: patent US7777047B2, “Indole compound” (Takeda Pharmaceutical Company Limited, priority 2006, dated 2010)
